# Measurements published in patent US20160002247A1, “8-SUBSTITUTED IMIDAZOPYRIMIDINONE DERIVATIVE HAVING AUTOTAXIN INHIBITORY ACTIVITY” (THE UNIVERSITY OF TOKYO, priority 2013, published 2016).
# Target: T1, Human autotaxin enzyme (Homo sapiens, UniProt Q13822)
# T1 construct: purchased R&D System
# Assay: Evaluation of autotaxin inhibitor, Method B (Test Example 2): TG-mTMP fluorescence
# Type: biochemical
# Details: Assay Method B (Test Example 2), human autotaxin; read-out: Inhibitory Activity (autotaxin enzyme inhibitory activity, IC50 class)
# Method in brief: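 Human autotaxin in Tris-HCl pH 7.5 buffer with NaCl, MgCl2 and 0.1% BSA was reacted with TG-mTMP (0.5 μM solution added) and test compound for 2 hours at room temperature.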
row,Structure (SMILES),IC50
1,CCCCCn1c(Oc2ccc(C(=O)CC)cc2)cc(=O)n2cc(-c3ccc(Cl)cc3)nc12 [Compound 266],100 to 1000 nM
2,CCCCCn1c(OC23CCC(CC2)CC3)cc(=O)n2cc(-c3ccc(Cl)cc3)nc12 [Compound 267],100 to 1000 nM
3,CCCCCn1c(Oc2nccs2)cc(=O)n2cc(-c3ccc(Cl)cc3)nc12 [Compound 268],< 10 nM
4,CCCCCn1c(OCCOC)cc(=O)n2cc(-c3ccc(Cl)cc3)nc12 [Compound 269],< 10 nM
5,CCCCCn1c(OC(C)(C)C)cc(=O)n2cc(-c3ccc(Cl)cc3)nc12 [Compound 270],100 to 1000 nM
6,C#CCCCCCCCCCOc1cc(=O)n2cc(-c3ccc(Cl)cc3)nc2n1CCCCC [Compound 271],> 1000 nM
7,CCCCCn1c(OC(C)C)cc(=O)n2cc(-c3ccc(Cl)cc3)nc12 [Compound 272],10 to 100 nM
8,CCCCCn1c(Oc2ccccn2)cc(=O)n2cc(-c3ccc(Cl)cc3)nc12 [Compound 273],100 to 1000 nM
9,CCCCCn1c(N2CC(O)C2)cc(=O)n2cc(-c3ccc(Cl)cc3)nc12 [Compound 274],< 10 nM
10,CCCCCn1c(N2CCCC2CCCC)cc(=O)n2cc(-c3ccc(Cl)cc3)nc12 (stereo not drawn) [Compound 277],10 to 100 nM
11,CCCCCn1c(N2CCCC2CCCc2ccccc2)cc(=O)n2cc(-c3ccc(Cl)cc3)nc12 (stereo not drawn) [Compound 278],10 to 100 nM
12,CCCCCn1c(N2CCCC2CCC2CCCCC2)cc(=O)n2cc(-c3ccc(Cl)cc3)nc12 (stereo not drawn) [Compound 279],10 to 100 nM
13,CCCCCn1c(N2CCCC2C(C)CCC)cc(=O)n2cc(-c3ccc(Cl)cc3)nc12 (stereo not drawn) [Compound 280],10 to 100 nM
14,O=C(O)C1CCN(c2cc(=O)n3cc(-c4ccc(Cl)cc4)nc3n2CCCC(F)(F)F)CC1 [Compound 283],< 10 nM
15,N#Cc1ccc(-c2cn3c(=O)cc(N4CCC(C(=O)O)CC4)n(CCCC(F)(F)F)c3n2)cc1 [Compound 285],< 10 nM
16,N#CCCCCn1c(NCc2ccc(C(=O)O)cc2)cc(=O)n2cc(-c3ccc(Cl)cc3)nc12 [Compound 286],< 10 nM
17,O=C(O)c1ccc(CNc2cc(=O)n3cc(-c4ccc(Cl)cc4)nc3n2CCCC(F)(F)F)cc1 [Compound 287],< 10 nM
18,N#Cc1ccc(-c2cn3c(=O)cc(NCc4ccc(C(=O)O)cc4)n(CCCC(F)(F)F)c3n2)cc1 [Compound 289],< 10 nM
19,CCCCCn1c(-c2ccccc2)cc(=O)n2cc(-c3ccc(Cl)cc3)nc12 [Compound 366],10 to 100 nM
20,CCCCCn1c(CO)cc(=O)n2cc(-c3ccc(Cl)cc3)nc12 [Compound 367],< 10 nM

row,Structure (SMILES),IC50
1,CCCCCn1c(-c2ccc(F)cc2)cc(=O)n2cc(-c3ccc(Cl)cc3)nc12 [Compound 368],< 10 nM
2,CCCCCn1c(CCC)cc(=O)n2cc(-c3ccc(Cl)cc3)nc12 [Compound 369],< 10 nM
3,CCCCCn1c(C=O)cc(=O)n2cc(-c3ccc(Cl)cc3)nc12 [Compound 370],< 10 nM
4,CCCCCn1c(COCc2ccccc2)cc(=O)n2cc(-c3ccc(Cl)cc3)nc12 [Compound 371],10 to 100 nM
5,CCCCCn1c(C(=O)O)cc(=O)n2cc(-c3ccc(Cl)cc3)nc12 [Compound 372],10 to 100 nM
6,CCCCCn1c(-c2ccc(C(=O)NCCN3CCOCC3)cc2)cc(=O)n2cc(-c3ccc(Cl)cc3)nc12 [Compound 374],< 10 nM
7,N#CCCCCn1c(-c2ccc(C(N)=O)cc2)cc(=O)n2cc(-c3ccc(Cl)cc3)nc12 [Compound 379],< 10 nM
8,N#CCCCCn1c(-c2ccc(C(=O)NCCN3CCOCC3)cc2)cc(=O)n2cc(-c3ccc(Cl)cc3)nc12 [Compound 380],< 10 nM
9,CN(C)CCNC(=O)c1ccc(-c2cc(=O)n3cc(-c4ccc(C#N)cc4)nc3n2CCCCC#N)cc1 [Compound 384],< 10 nM
10,N#CCCCCn1c(-c2ccc(C(N)=O)cc2)cc(=O)n2cc(-c3ccc(C#N)cc3)nc12 [Compound 385],< 10 nM
11,N#CCCCCn1c(-c2ccc(C(=O)NCCN3CCOCC3)cc2)cc(=O)n2cc(-c3ccc(C#N)cc3)nc12 [Compound 386],< 10 nM
12,N#Cc1ccc(-c2cn3c(=O)cc(-c4ccc(C(=O)NCCN5CCOCC5)cc4)n(CCCC(F)(F)F)c3n2)cc1 [Compound 389],< 10 nM
13,CCCCCn1c(-c2cc3ccccc3o2)cc(=O)n2cc(-c3ccc(Cl)cc3)nc12 [Compound 392],100 to 1000 nM
14,CCCCCn1c(-c2cc3ccccc3s2)cc(=O)n2cc(-c3ccc(Cl)cc3)nc12 [Compound 393],10 to 100 nM
15,CCCCCn1c(-c2ccccc2OC)cc(=O)n2cc(-c3ccc(Cl)cc3)nc12 [Compound 395],10 to 100 nM
16,CCCCCn1c(-c2cccc(OC)c2)cc(=O)n2cc(-c3ccc(Cl)cc3)nc12 [Compound 396],10 to 100 nM
17,CCCCCn1c(-c2ccc(OC)cc2)cc(=O)n2cc(-c3ccc(Cl)cc3)nc12 [Compound 397],< 10 nM
18,CCCCCn1c(/C=C/c2ccccc2)cc(=O)n2cc(-c3ccc(Cl)cc3)nc12 [Compound 398],10 to 100 nM
19,CCCCCn1c(-c2ccc(N(C)C)cc2)cc(=O)n2cc(-c3ccc(Cl)cc3)nc12 [Compound 399],10 to 100 nM
20,CCCCCn1c(-c2ccc(C#N)cc2)cc(=O)n2cc(-c3ccc(Cl)cc3)nc12 [Compound 400],< 10 nM

row,Structure (SMILES),IC50
1,CCCCCn1c(-c2ccc(C(=O)N(C)C)cc2)cc(=O)n2cc(-c3ccc(Cl)cc3)nc12 [Compound 402],< 10 nM
2,CCCCCn1c(-c2ccoc2)cc(=O)n2cc(-c3ccc(Cl)cc3)nc12 [Compound 403],10 to 100 nM
3,CCCCCn1c(-c2ccc(COC)cc2)cc(=O)n2cc(-c3ccc(Cl)cc3)nc12 [Compound 404],< 10 nM
4,CCCCCn1c(C2=CCCCC2)cc(=O)n2cc(-c3ccc(Cl)cc3)nc12 [Compound 408],10 to 100 nM
5,CCCCCn1c(-c2ccncc2)cc(=O)n2cc(-c3ccc(Cl)cc3)nc12 [Compound 410],< 10 nM
6,CCCCCn1c(-c2ccc(O)cc2)cc(=O)n2cc(-c3ccc(Cl)cc3)nc12 [Compound 411],< 10 nM
7,C/C=C/c1cc(=O)n2cc(-c3ccc(Cl)cc3)nc2n1CCCCC [Compound 414],10 to 100 nM
8,CCCCCn1c(/C=C/C(C)(C)C)cc(=O)n2cc(-c3ccc(Cl)cc3)nc12 [Compound 415],10 to 100 nM
9,CCCCCn1c(-c2ccc(N3CCN(C)CC3)cc2)cc(=O)n2cc(-c3ccc(Cl)cc3)nc12 [Compound 416],< 10 nM
10,CCCCCn1c(-c2cc[nH]n2)cc(=O)n2cc(-c3ccc(Cl)cc3)nc12 [Compound 417],10 to 100 nM
11,CCCCCn1c(-c2cscn2)cc(=O)n2cc(-c3ccc(Cl)cc3)nc12 [Compound 418],10 to 100 nM
12,CCCCCn1c(-c2ccc(NCC(C)C)nc2)cc(=O)n2cc(-c3ccc(Cl)cc3)nc12 [Compound 419],< 10 nM
13,CCCCCn1c(-c2ccc(N(C)CC3CCCCO3)cc2)cc(=O)n2cc(-c3ccc(Cl)cc3)nc12 (stereo not drawn) [Compound 420],10 to 100 nM
14,CCCCCn1c(-c2ccc(N3CCOCC3)cc2)cc(=O)n2cc(-c3ccc(Cl)cc3)nc12 [Compound 421],10 to 100 nM
15,CCCCCn1c(-c2ccc(N)cc2)cc(=O)n2cc(-c3ccc(Cl)cc3)nc12 [Compound 422],10 to 100 nM
16,CCCCCn1c(/C=C/COC)cc(=O)n2cc(-c3ccc(Cl)cc3)nc12 [Compound 423],10 to 100 nM
17,CCCCCn1c(-c2cnc(N)cn2)cc(=O)n2cc(-c3ccc(Cl)cc3)nc12 [Compound 424],< 10 nM
18,CCCCCn1c(-n2ccccc2=O)cc(=O)n2cc(-c3ccc(Cl)cc3)nc12 [Compound 426],< 10 nM

# Target: T2, Mouse autotaxin enzyme (Mus musculus, UniProt Q9R1E6)
# T2 construct: purchased R&D System
# Assay: Evaluation of autotaxin inhibitor, Method A (Test Example 1): TG-mTMP fluorescence
# Type: biochemical
# Details: Assay Method: Method A (Test Example 1); read-out: Inhibitory Activity (Enzyme Inhibitory Activity, IC50)
# Method: (Method A) Evaluation of Autotaxin Inhibitor
# Solution A containing 25 mM Tris-HCl buffer (pH7.5), 100 mM NaCl, 5 mM MgCl2 and 0.1% BSA was prepared. Mouse autotaxin enzyme (purchased from R&D System) was diluted with Solution A, and 5 μL of which was added to a solution of test compound in DMSO. Furthermore, 5 μl of 0.5 μM TG-mTMP in Solution A was added and allowed to react at room temperature for 2 hours. 5 μl of 150 mM EDTA in Solution A was added to quench the reaction, and a fluorescent dye TokyoGreen, which was produced by the reaction, was detected. The fluorescence was detected using ViewLux (PerkinElmer, Inc.) with an excitation wavelength of 480 nm and a fluorescence wavelength of 540 nm.
# The percent inhibition of the test compound was calculated by assuming the sample with no test compound as 0% inhibition and the sample with no enzyme as 100% inhibition, and the percent inhibitions at different concentrations of the test compound were plotted to obtain a concentration-dependent curve.
row,Structure (SMILES),IC50
1,Cc1cc(=O)n2cc(-c3ccc(Cl)cc3)nc2n1C [Compound 4],100 to 1000 nM
2,CCn1c(C)cc(=O)n2cc(-c3ccc(Cl)cc3)nc12 [Compound 5],10 to 100 nM
3,CCCn1c(C)cc(=O)n2cc(-c3ccc(Cl)cc3)nc12 [Compound 6],10 to 100 nM
4,CCCCCCCn1c(C)cc(=O)n2cc(-c3ccc(Cl)cc3)nc12 [Compound 9],10 to 100 nM
5,CCCCCCCCn1c(C)cc(=O)n2cc(-c3ccc(Cl)cc3)nc12 [Compound 10],10 to 100 nM
6,CCCCCCCCCn1c(C)cc(=O)n2cc(-c3ccc(Cl)cc3)nc12 [Compound 11],100 to 1000 nM
7,CCCCCCCCCCn1c(C)cc(=O)n2cc(-c3ccc(Cl)cc3)nc12 [Compound 12],100 to 1000 nM
8,Cc1cc(=O)n2cc(-c3ccc(Cl)cc3)nc2n1C1CCCCC1 [Compound 14],10 to 100 nM
9,C=CCn1c(C)cc(=O)n2cc(-c3ccc(Cl)cc3)nc12 [Compound 15],10 to 100 nM
10,C#CCn1c(C)cc(=O)n2cc(-c3ccc(Cl)cc3)nc12 [Compound 16],10 to 100 nM
11,CCCCCn1c(C)cc(=O)n2cc(-c3ccc(F)cc3)nc12 [Compound 17],10 to 100 nM
12,CCCCCn1c(C)cc(=O)n2cc(-c3ccc(C)cc3)nc12 [Compound 19],10 to 100 nM
13,COC(=O)Cn1c(C)cc(=O)n2cc(-c3ccc(Cl)cc3)nc12 [Compound 21],10 to 100 nM
14,Cc1cc(=O)n2cc(-c3ccc(Cl)cc3)nc2n1CC(=O)OCc1ccccc1 [Compound 22],10 to 100 nM
15,Cc1cc(=O)n2cc(-c3ccc(Cl)cc3)nc2n1CC(=O)OC(C)(C)C [Compound 23],10 to 100 nM
16,CCNC(=O)Cn1c(C)cc(=O)n2cc(-c3ccc(Cl)cc3)nc12 [Compound 24],100 to 1000 nM
17,CCN(C)C(=O)Cn1c(C)cc(=O)n2cc(-c3ccc(Cl)cc3)nc12 [Compound 25],100 to 1000 nM
